Data from US6660718B1, “3-modified leucomycin derivatives” (Meiji Seika Kaisha, Ltd., priority 1999, dated 2003).
≈ marks a conversion by molar mass, not a printed value.

Columns and labels:
[1] = test system: Micrococcus luteus ATCC9341; assay: Antibacterial activity test (agar dilution MIC); type: cell-based; conditions: agar plates, 37° C., about 20 hours
Procedure: (§1) In vitro antibacterial activities of the compounds of Examples 3, 5, 20, 23, 25 and 48 were determined as follows by referring to the standard method of the Japanese Society of Chemotherapy (Chemotherapy, 29, pp.76-79, 1981). For comparison, antibacterial activities of rokitamycin (RKM), leucomycin-A7 (LM-A7) and the compound described in U.S. Pat. No. 5,407,918, Example 7 were determined in the same manner.
(§2) For a solution of each test drug dissolved in methanol at 5000 μg/ml, a series of 2-fold dilutions were prepared. 200 μl of each solution of the test drug was added in a petri dish, added with 10 ml of agar medium for susceptibility measurement supplemented with 5% of sterile horse defibrinated blood, 15 μg/ml of β-nicotinamide adenine dinucleotide and 5 μg/ml of Hemin, and then mixed to prepare agar plates containing the test drug. A given volume of a culture broth for susceptibility measurement, which was prepared to contain a given cell numbers of bacteria to be tested, was inoculated to the agar plates containing the test drug by using a micro planter (Sakuma Seisakusho). After the inoculation, cultivation was carried out at 37° C. for about 20 hours. After the culture, presence or absence of the growth of the test bacteria on the plates was observed by visual inspection, and the minimum concentration at which no growth was observed was determined as minimum inhibitory concentration (MIC) of each test drug for each of the test bacteria The results are shown in Tables 1-1, 1-2 and 1-3.

[2] = test system: Staphylococcus aureus MS15027 (ermC methylase); assay: Antibacterial activity test (agar dilution MIC); type: cell-based; conditions: for Minimum inhibitory concentration (MIC): Staphylococcus aureus MS15027 (ermC methylase), agar plates, 37° C., about 20 hours
Procedure: as §1, §2

[3] = test system: Streptococcus pneumoniae DP1 TypeI; assay: Antibacterial activity test (agar dilution MIC); type: cell-based; conditions: agar plates, 37° C., about 20 hours
Procedure: as §1, §2

[4] = test system: Staphylococcus aureus 209P JC-1; assay: Antibacterial activity test (agar dilution MIC); type: cell-based; conditions: agar plates, 37° C., about 20 hours
Procedure: as §1, §2

[5] = test system: Haemophilus influenzae 9334; assay: Antibacterial activity test (agar dilution MIC); type: cell-based; conditions: agar plates, 37° C., about 20 hours
Procedure: as §1, §2

[6] = test system: Streptococcus pneumoniae PRC-53 (mefE efflux); assay: Antibacterial activity test (agar dilution MIC); type: cell-based; conditions: for Minimum inhibitory concentration (MIC): Streptococcus pneumoniae PRC-53 (mefE efflux), agar plates, 37° C., about 20 hours
Procedure: as §1, §2

[7] = test system: Moraxella catarrhalis W-0500; assay: Antibacterial activity test (agar dilution MIC); type: cell-based; conditions: 37° C., about 20 hours; for Minimum inhibitory concentration (MIC): agar plates
Procedure: as §1, §2

[8] = test system: Streptococcus pyogenes Cook; assay: Antibacterial activity test (agar dilution MIC); type: cell-based; conditions: agar plates, 37° C., about 20 hours
Procedure: as §1, §2

[9] = test system: Gram-positive bacteria; assay: Antibacterial activity test, overall comparison; type: cell-based; conditions: for enhancement of the antibacterial activity compared to RKM and LM-A7: comparison of MIC values of Tables 1-1 and 1-2
Procedure: as §1, §2

[10] = test system: Streptococcus pneumoniae PRC-91 (ermAM methylase); assay: Antibacterial activity test (agar dilution MIC); type: cell-based; conditions: agar plates, 37° C., about 20 hours
Procedure: as §1, §2

[11] = test system: Streptococcus pneumoniae IP692; assay: Antibacterial activity test (agar dilution MIC); type: cell-based; conditions: agar plates, 37° C., about 20 hours
Procedure: as §1, §2

[12] = test system: Streptococcus pneumoniae TH-662 (ermAM methylase); assay: Antibacterial activity test (agar dilution MIC); type: cell-based; conditions: agar plates, 37° C., about 20 hours
Procedure: as §1, §2

[13] = type: in vitro ADME; conditions: 4 h
Procedure: Stability of the compound of Example 3 in plasma was studied as follows. Stability of RKM in plasma was also studied in the same manner for comparison. Blood was collected from rat ventral aorta and centrifuged (3000 rpm, 15 minutes) to separate plasma. 10 μl of a solution of a test drug dissolved in methanol at a concentration of 1600 μg/ml was added to 190 μl of the rat plasma and reacted at 37° C. At the start of the reaction and after 1, 2 and 4 hours, a part of the reaction mixture was collected and added with a given volume of an acetonitrile solution to prepare a bioassay sample for measurement of test medicament concentration. […] After the incubation, the diameter of the ring by growth inhibition of Micrococcus luteus ATCC9341 observed around the paper disc was measured by using a digital caliper. […] Based on a calibration curve obtained from concentrations of the standard solutions and diameters of growth inhibition rings, concentrations of the test drug in the samples at several time points were calculated, and then, by using the calculated remaining concentrations of the test drug in the samples at the time points, ratios of activity (%) based on the concentration at the start of the reaction, which was taken as 100%, were calculated. […]

[14] = test system: resistant strains of Streptococcus pneumoniae; assay: Antibacterial activity test, resistant strains, comparison; type: cell-based; conditions: comparison of MIC values of Table 1-3; reversed versus natural configuration at 3-position
Procedure: as §1
as §2, with “A given volume of a culture broth for susceptibility measurement, which was prepared to contain a given cell numbers of bacteria to be tested, was inoculated to the agar plates containing the test drug by using a micro planter (Sakuma Seisakusho). After the inoculation, cultivation was carried out at 37° C. for about 20 hours.” left out

[15] = read-out: Minimum inhibitory concentration (MIC)

| Structure (SMILES) | Minimum inhibitory concentration (MIC) [1] | Minimum inhibitory concentration (MIC) [2] | Minimum inhibitory concentration (MIC) [3] | Minimum inhibitory concentration (MIC) [4] | Minimum inhibitory concentration (MIC) [5] | Minimum inhibitory concentration (MIC) [6] | Minimum inhibitory concentration (MIC) [7] | Minimum inhibitory concentration (MIC) [8] | Minimum inhibitory concentration (MIC) [10] | Minimum inhibitory concentration (MIC) [11] | Minimum inhibitory concentration (MIC) [12] | other results |
| --- | --- | --- | --- | --- | --- | --- | --- | --- | --- | --- | --- | --- |
| CCCC(=O)O[C@H]1[C@H](C)O[C@@H](O[C@H]2[C@H](N(C)C)[C@@H](O)[C@H](O[C@H]3[C@@H](CC=O)C[C@@H](C)[C@@H](O)/C=C/C=C/C[C@@H](C)OC(=O)C[C@@H](O)[C@@H]3OC)O[C@@H]2C)C[C@@]1(C)OC(=O)CC [RKM, rokitamycin, reference compound] |  |  |  |  |  |  |  |  |  |  |  | MIC [1, 15]: 0.05 µg/mL (≈ 0.0604 µM); MIC ([2]; Staphylococcus aureus, 20 h, read-out: Minimum inhibitory concentration (MIC)): 0.39 µg/mL (≈ 0.471 µM); MIC ([3]; DP1TYPEI, read-out: Minimum inhibitory concentration (MIC)): 0.1 µg/mL (≈ 0.121 µM); MIC [4, 15]: 0.2 µg/mL (≈ 0.242 µM); MIC [5, 15]: 1.56 µg/mL (≈ 1.88 µM); MIC ([6]; Streptococcus pneumoniae, 20 h, read-out: Minimum inhibitory concentration (MIC)): 0.2 µg/mL (≈ 0.242 µM); MIC ([7]; W0500, agar plates, read-out: Minimum inhibitory concentration (MIC)): 0.2 µg/mL (≈ 0.242 µM); MIC [8, 15]: 0.05 µg/mL (≈ 0.0604 µM) |
| CCC(=O)OC1C(C)OC(OC2C(C)OC(OC3C(CC=O)CC(C)C(O)C=CC=CCC(C)OC(=O)CC(OC)C3OC)C(O)C2N(C)C)CC1(C)O (centres unmarked) [Example 23, 3-O-Methylleucomycin A7] | 0.05 µg/mL (≈ 0.0648 µM) | 0.20 µg/mL (≈ 0.259 µM) | 0.10 µg/mL (≈ 0.13 µM) | 0.20 µg/mL (≈ 0.259 µM) | 1.56 µg/mL (≈ 2.02 µM) | 0.10 µg/mL (≈ 0.13 µM) | 0.78 µg/mL (≈ 1.01 µM) | 0.10 µg/mL (≈ 0.13 µM) |  |  |  | enhancement of the antibacterial activity compared to RKM and LM-A7 [9]: two-fold |
| COC1CC(=O)OC(C)CC=CC=CC(O)C(C)CC(CC=O)C(OC2OC(C)C(OC3CC(C)(OC)C(OCCC(C)C)C(C)O3)C(N(C)C)C2O)C1OC (centres unmarked) [Example 20, 4″-O-Isoamyl-3,3″-di-O-methylleucomycin V] | 0.05 µg/mL (≈ 0.0625 µM) | 0.39 µg/mL (≈ 0.487 µM) | 0.10 µg/mL (≈ 0.125 µM) | 0.20 µg/mL (≈ 0.25 µM) | 1.56 µg/mL (≈ 1.95 µM) | 0.10 µg/mL (≈ 0.125 µM) | 0.39 µg/mL (≈ 0.487 µM) | 0.10 µg/mL (≈ 0.125 µM) |  |  |  | antibacterial activity compared with the compound described in Example 7 of U.S. Pat. No. 5,407,918 ([9]; comparison of MIC values of Table 1-2): almost the same antibacterial activity |
| CCC(=O)OC1C(C)OC(OC2C(C)OC(OC3C(CC=O)CC(C)C(O)C=CC=CCC(C)OC(=O)CC(OC(=O)c4ccccc4)C3OC)C(O)C2N(C)C)CC1(C)O (centres unmarked) [Example 25, 3-O-Benzoylleucomycin A7] |  |  |  | 0.39 µg/mL (≈ 0.452 µM) | 6.25 µg/mL (≈ 7.25 µM) | 0.39 µg/mL (≈ 0.452 µM) | 1.56 µg/mL (≈ 1.81 µM) |  | >100 µg/mL | 0.39 µg/mL (≈ 0.452 µM) | >100 µg/mL |  |
| CCCC(=O)OC1C(C)OC(OC2C(C)OC(OC3C(CC=O)CC(C)C(O)C=CC=CCC(C)OC(=O)CC(OC)C3OC)C(O)C2N(C)C)CC1(C)OC(=O)CC (centres unmarked) [Example 3, 3-O-Methylrokitamycin] | 0.025 µg/mL (≈ 0.0297 µM) | 0.20 µg/mL (≈ 0.238 µM) | 0.05 µg/mL (≈ 0.0594 µM) | 0.10 µg/mL (≈ 0.119 µM) | 3.13 µg/mL (≈ 3.72 µM) | 0.10 µg/mL (≈ 0.119 µM) | 0.20 µg/mL (≈ 0.238 µM) | 0.025 µg/mL (≈ 0.0297 µM) |  |  |  | enhancement of the antibacterial activity compared to RKM and LM-A7 [9]: two-fold; Stability in rat plasma (remaining antibacterial activity with time) [13]: more stable in the rat plasma than RKM |
| CCC(=O)O[C@H]1[C@H](C)O[C@@H](O[C@H]2[C@H](N(C)C)[C@@H](O)[C@H](O[C@H]3[C@@H](CC=O)C[C@@H](C)[C@@H](O)/C=C/C=C/C[C@@H](C)OC(=O)C[C@@H](O)[C@@H]3OC)O[C@@H]2C)C[C@@]1(C)O [LM-A7, leucomycin-A7, reference compound] | 0.10 µg/mL (≈ 0.132 µM) | 0.39 µg/mL (≈ 0.515 µM) | 0.20 µg/mL (≈ 0.264 µM) | 0.39 µg/mL (≈ 0.515 µM) | 1.56 µg/mL (≈ 2.06 µM) | 0.20 µg/mL (≈ 0.264 µM) | 0.78 µg/mL (≈ 1.03 µM) | 0.10 µg/mL (≈ 0.132 µM) | >100 µg/mL | 0.39 µg/mL (≈ 0.515 µM) | >100 µg/mL |  |
| CCC(=O)OC1C(C)OC(OC2C(C)OC(OC3C(CC=O)CC(C)C(O)C=CC=CCC(C)OC(=O)CC(OC(=O)c4ccccc4)C3OC)C(O)C2N(C)C)CC1(C)O (stereo not drawn) [Example 48, 3-Epi-3-O-benzoylleucomycin A7] |  | 0.78 µg/mL (≈ 0.905 µM) |  | 0.39 µg/mL (≈ 0.452 µM) | 6.25 µg/mL (≈ 7.25 µM) | 0.20 µg/mL (≈ 0.232 µM) | 0.78 µg/mL (≈ 0.905 µM) |  | 25 µg/mL (≈ 29 µM) | 0.20 µg/mL (≈ 0.232 µM) | 25 µg/mL (≈ 29 µM) | antibacterial activity against the resistant strains of Streptococcus pneumoniae, compared with Example 25 [14]: improvement in antibacterial activity |
| C=CCOC1CC(=O)OC(C)CC=CC=CC(O)C(C)CC(CC=O)C(OC2OC(C)C(OC3CC(C)(OC(=O)CC)C(OC(=O)CCC)C(C)O3)C(N(C)C)C2O)C1OC (centres unmarked) [Example 5, 3-O-Allylrokitamycin] | 0.10 µg/mL (≈ 0.115 µM) | 0.39 µg/mL (≈ 0.449 µM) | 0.20 µg/mL (≈ 0.23 µM) | 0.20 µg/mL (≈ 0.23 µM) | 6.25 µg/mL (≈ 7.2 µM) | 0.20 µg/mL (≈ 0.23 µM) | 0.39 µg/mL (≈ 0.449 µM) | 0.10 µg/mL (≈ 0.115 µM) |  |  |  |  |
